Common to all, as to type: cell-based
The target in experiment [1] is T1, human D1 dopamine receptor (Homo sapiens, UniProt P21728).
T1 construct: expressed in transfected cells; host or cells: HEK-293T
The experiment in a line: STEP D1 dopamine receptor activation assay with pCRE-d2EGFP reporter. The note with it: 48 hours, C1-APB 1 micromolar; for Pixels per spot in STEP D1 activation experiment: HEK-293T cells transfected with CMV.D1 and pCRE-d2EGFP, GFP fluorescence, MCID image analysis. Here is the method: (§1) The purpose of the experiment was to measure activation of the D1 dopamine receptor by a D1 receptor agonist, Chloro-APB (C1-APB). Activation of the D1 receptor by C1-APB could be measured by virtue of it's coupling to adenylate cyclase and subsequent generation of cyclic AMP, as indicated by the pathway shown in FIG. 3.
Three hundred nanograms of pCMV.D1 (or control vector pCMV.Neo) and 300 ng of pCRE-d2EGFP in 10 microliters were mixed with 10 microliters of transferrin-polylysine complex (1 mg/ml). After 10 minutes, 10 microliters of lipofectamine (1 mg/ml) were added and the mixture incubated for an addition 10 minutes. Spots of approximately 100 nanoliters were placed onto four different polylysine coated microscope slides, and the spots allowed to dry under ambient room conditions. […] The three slides plated with cells were grown in the presence of either C1-APB or the phosphodiesterase inhibitor IBMX or both C1-APB and IBMX.
(§2) After 48 hours, the cells were examined using fluorescence microscopy.

Experiment [2] has as its system cyclic AMP responsive promoter (pCRE-d2EGFP) in HEK-293T cells. Briefly: STEP D1 activation experiment, control vector pCMV.Neo with pCRE-d2EGFP reporter. The note with it: HEK-293T cells transfected with control vector CMV.Neo and pCRE-d2EGFP; 48 hours; GFP fluorescence, MCID image analysis. Here is the method: as §1
Three hundred nanograms of pCMV.D1 (or control vector pCMV.Neo) and 300 ng of pCRE-d2EGFP in 10 microliters were mixed with 10 microliters of transferrin-polylysine complex (1 mg/ml). After 10 minutes, 10 microliters of lipofectamine (1 mg/ml) were added and the mixture incubated for an addition 10 minutes. Spots of approximately 100 nanoliters were placed onto four different polylysine coated microscope slides, and the spots allowed to dry under ambient room conditions. HEK-293T cells were then plated onto three slides, while one slide was grown only in media containing serum. The three slides plated with cells were grown in the presence of either C1-APB or the phosphodiesterase inhibitor IBMX or both C1-APB and IBMX.
as §2

The subject of experiment [3] is tetracycline responsive element. The experiment in a line: Transactivation assay using a tetracycline inducible system (pBi-EGFP) after STEP transfection. Particulars: HEK TetOn cells; 10 mg/ml of doxycycline; 48 hours after plating. The procedure:
To determine whether STEP transfection could be modified to generate inducible expression of a protein, the tetracycline inducible system developed by Bujard and coworkers was employed (Baron et al. (2000) Proc Natl Acad Sci USA 96:1013-1018). […] Two DNA complexes were prepared for these experiments, one containing the pBi-EGFP plasmid (Clontech) directing the expression of EGFP under the control of a tetracycline responsive element and another complex containing pEGFP-C1 plasmid DNA (Clontech) with EGFP expression under the control of the strong human cytomegalovirus early promoter. Spots for each of these complexes were applied next to each other on each of two different microscope slides and HEK TetOn cells were plated onto each slide in separate 10 cm culture dishes. Twenty-four hours after transfection, one plate was incubated in DMEM and 10% FCS while the other was incubated in the same media containing 10 mg/ml of doxycycline. Fluorescence photomicrographs were prepared 48 hours after plating of the cells. […] In the absence of doxycycline, none of the cells on the pBiEGFP spot were fluorescent while approximately 30% of the cells on the pEGFP-C1 spot were fluorescent.

Another experiment addresses T2, human MC1R (Homo sapiens, UniProt Q01726).
T2 construct: expressed in transfected cells; host or cells: HEK-293T
Briefly: Dose response of melanocortin receptor 1 agonists, pCRE-Luciferase reporter, 96 well STEP. The note with it: increasing concentrations, 6 hours; HEK-239T cells; FIG. 8. Here is the method: In the following examples a polylysine coated 96 well plate was used. DNA transfection complexes were generated essentially as described in Example 1. The components a-d from Example 1 were added sequentially but without the 5 min. incubation. The DNA transfection complexes were applied by direct pipetting (complexes can also be applied by automated liquid handling systems) to the bottom of each well in a total volume of 20 μl, and the spots were allowed to dry under ambient conditions until completely dry. HEK-293T cells were prepared as in Example 1.200 μl of media containing 10^4 HEK-293T cells were added to each well. When using the expression vector pZsGreen-N1 (Clontech BD), which encodes a variant of wild-type Zoanthus sp. green fluorescent protein ZsGreen; (excitation maximum=496 nm; emission maximum=506 nm. Ref: Matz, M. V., et al. (1999) Nature Biotech. 17:969-973), the cells were visualized using fluorescent microscopy after 24 and 48 hours following transfections.
DNA complexes were formed with human MC1R cDNA (GenBank Accession No. X67594) and with either pCRE-Luciferase or the control plasmid pTal-Luciferase (lacking the CRE binding sequences). The complexes were applied to the surface of individual wells of a polylysine coated 96 well plate; after complete drying, HEK-239T cells were then added. […]

The subject of experiment [4] is rat PC-12 pheochromocytoma. The experiment in a line: STEP transfection efficiency with different cell surface ligands in the transfection complex. The note with it: PC-12 cells; ligand in the transfection complex; GFP fluorescence; penton protein 0.64 mg/ml. Here is the method: In the following experiments, transfection complexes were formed as described in Example 1, except that in the preparation of some transfection complexes, purified penton protein was used instead of transferring the penton protein was used at a concentration of 0.64 mg/ml. Transfection complexes were thus prepared with either transferrin or penton protein. After immobilizing the complexes as described in Example 1, the cell lines rat PC-12 pheochromocytoma and HEK-293T were transfected as described in Example 1.
The results are shown in FIG. 4 as sets of images; the cell line is indicated at the top of the images, and the ligand used in the transfection complex is indicated to the right of the images. The images under each indicated cell line are either brightfield images (to the left) or fluorescence images (to the right).

T1 sequence (P21728 whole entry): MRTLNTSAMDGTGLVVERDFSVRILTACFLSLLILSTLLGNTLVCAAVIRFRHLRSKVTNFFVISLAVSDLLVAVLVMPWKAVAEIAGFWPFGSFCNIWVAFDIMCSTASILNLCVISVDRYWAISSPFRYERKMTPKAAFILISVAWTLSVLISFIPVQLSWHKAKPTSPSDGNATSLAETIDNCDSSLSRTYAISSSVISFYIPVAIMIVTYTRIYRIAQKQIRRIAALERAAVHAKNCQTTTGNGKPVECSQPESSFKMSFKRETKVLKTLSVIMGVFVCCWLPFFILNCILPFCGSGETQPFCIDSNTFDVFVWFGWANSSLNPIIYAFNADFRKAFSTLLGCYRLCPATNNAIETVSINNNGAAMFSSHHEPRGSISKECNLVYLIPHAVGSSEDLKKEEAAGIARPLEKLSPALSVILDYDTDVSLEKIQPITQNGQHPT
T2 sequence (Q01726 whole entry): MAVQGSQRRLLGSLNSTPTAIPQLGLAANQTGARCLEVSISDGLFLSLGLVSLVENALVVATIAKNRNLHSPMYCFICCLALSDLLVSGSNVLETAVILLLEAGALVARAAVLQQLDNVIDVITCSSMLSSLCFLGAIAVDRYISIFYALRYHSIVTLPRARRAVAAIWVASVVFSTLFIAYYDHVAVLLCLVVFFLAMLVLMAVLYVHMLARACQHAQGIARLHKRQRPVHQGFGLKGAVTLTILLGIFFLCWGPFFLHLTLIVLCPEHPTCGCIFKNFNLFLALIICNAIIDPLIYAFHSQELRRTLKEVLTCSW

`C=CCN1CCc2c(cc(O)c(O)c2Cl)C(c2ccccc2)C1` (stereo not drawn) [Cl-APB, Chloro-APB]: the entries for the “Pixels per spot in STEP D1 activation experiment” value in experiment [1] and in experiment [2] were 447 + 38 pixels per spot and 46 + 38 pixels per spot, respectively. Further, the “expression of the green fluorescent protein reporter” value in experiment [1] (cells expressing the D1 receptor, fluorescence microscopy) is given as “significantly greater expression”.
In the case of `CC(C)Cn1c(=O)n(C)c(=O)c2[nH]cnc21` [UBMX, IBMX], the “Pixels per spot in STEP D1 activation experiment” value is 165 + 35 pixels per spot in experiment [1] and 65 + 32 pixels per spot in experiment [2].
For `C[C@H]1c2cccc(O)c2C(=O)C2=C(O)[C@]3(O)C(=O)C(C(N)=O)=C(O)[C@@H](N(C)C)[C@@H]3[C@@H](O)[C@@H]21` [doxycycline], the “cells on the pBi-EGFP spot with detectable GFP expression” value in experiment [3] is reported as 20%.
Regarding N-acetyl-[Cys^4,10,D-Phe^7]-αMSH, at human MC1R, the “luciferase activity, dose response curve of the MC1R” value is listed as “signal is well above background”.
For “transferrin: ligand for a receptor which is endocytosed, used as complexing agent in the transfection complex”, the transfection efficiency entry in experiment [4] is “less than 10%”.
For the compound αMSH, the “luciferase activity, dose response curve of the MC1R” value at human MC1R is recorded as “signal is well above background”.
